These results are taken from ChEMBL document CHEMBL4257084, “Novel functionalized 5-(phenoxymethyl)-1,3-dioxane analogs exhibiting cytochrome p450 inhibition and their method of use” (2016).

The target of the test is T1, Cytochrome P450 11B1, mitochondrial (Homo sapiens, UniProt P15538).
T1 sequence (P15538 whole entry): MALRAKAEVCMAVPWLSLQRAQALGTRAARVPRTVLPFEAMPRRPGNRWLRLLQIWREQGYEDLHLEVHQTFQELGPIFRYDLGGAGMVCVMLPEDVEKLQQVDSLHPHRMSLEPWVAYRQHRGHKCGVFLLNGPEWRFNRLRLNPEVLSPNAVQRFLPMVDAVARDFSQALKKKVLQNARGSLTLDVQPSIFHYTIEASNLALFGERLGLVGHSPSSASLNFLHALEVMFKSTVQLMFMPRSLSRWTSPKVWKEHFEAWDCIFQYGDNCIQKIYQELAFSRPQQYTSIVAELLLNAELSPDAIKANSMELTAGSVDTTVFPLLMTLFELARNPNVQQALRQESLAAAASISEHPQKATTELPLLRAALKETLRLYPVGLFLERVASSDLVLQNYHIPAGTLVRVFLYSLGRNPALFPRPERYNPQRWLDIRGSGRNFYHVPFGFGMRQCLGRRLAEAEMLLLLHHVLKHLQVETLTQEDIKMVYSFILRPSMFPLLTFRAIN
Nature of the test: Inhibition of recombinant CYP11 (unknown origin) expressed in human AD293 cells assessed as reduction in cortisol level preincubated for 60 mins followed by 11-deoxy cortisol substrate addition and measured after 12 hrs by LC-MS method. The class given is cell-based.

pIC50: −log10 of the molar value.

Consider `CS(=O)(=O)N1CCN(c2ccc(CO[C@H]3CO[C@@](Cn4ccnc4)(c4ccccc4Cl)OC3)cc2)CC1`, for which the pIC50 (as a rule, the negative decadic logarithm of the IC50, by convention in mol/L) is 5.00.
